Laboratory results from patent US20100273875A1, “Composition for External Application to Skin” (KAO CORPORATION, priority 2007, published 2010).

Experiments:
[1] = tested on: hairless mice irradiated with UV-B; assay: Evaluation of wrinkle-preventing effect (visual evaluation of wrinkles), Example 1; type: in vivo; conditions: 100 μL/day after UV-B, five times a week over 12 weeks
Description: (§1) Six-week-old ICR/HR female mice prepared by mating HR/HR mice with HaM/ICR mice were used as wrinkle model animals (wrinkle-formed hairless mice). The mice were allowed to take feed and water freely and raised in an ultraviolet-free environment of a temperature of 23° C. and a humidity of 55%.
(§2) The hairless mice raised as above were divided into 7 groups each having 8 mice and were irradiated with UV-B. UV-B irradiation was performed according to a known general method described in Tsukahara et al. (Br. J. Dermatol., 2004, 151, p. 984-994) or the like. Specifically, the hairless mice raised as above were placed in cages and irradiated with UV-B using Toshiba SE lamps. Irradiation was performed at an irradiance level of 40 to 50 mJ/cm^2, which corresponds to 0.8 to 1 MED (minimal erythema dose) for general 6-week-old hairless mice, over 12 weeks five times a week.
(§3) Samples to be applied to the hairless mice were prepared as 1% Exemplified Compound (1)/90% ethanol (EtOH) solution, 3% Exemplified Compound (1)/90% EtOH solution, 1% Exemplified Compound (2)/90% EtOH solution, 1% Exemplified Compound (3)/90% EtOH solution, 0.1% Exemplified Compound (4)/90% EtOH solution, and 1% Exemplified Compound (5)/90% EtOH solution.
(§4) Immediately after the ultraviolet ray irradiation, 90% EtOH (control) and the samples prepared as above were applied to the hairless mice of the respective groups over 12 weeks with five times a week at a dose of 100 μL/day. The groups of the hairless mice applied with the samples include “90% EtOH control group” consisting of the mice applied with 90% EtOH, “1%-compound 1 group” consisting of the mice applied with 1% Exemplified Compound (1)/90% EtOH solution, “3%-compound 1 group” consisting of the mice applied with 3% Exemplified Compound (1)/90% EtOH solution, “1%-compound 2 group” consisting of the mice applied with 1% Exemplified Compound (2)/90% EtOH solution, “1%-compound 3 group” consisting of the mice applied with 1% Exemplified Compound (3)/90% EtOH solution, “0.1%-compound 4 group” consisting of the mice applied with 0.1% Exemplified Compound (4)/90% EtOH solution, and “1%-compound 5 group” consisting of the mice applied with 1% Exemplified Compound (5)/90% EtOH solution.
(§5) Five-grade evaluation for wrinkles was performed to classify wrinkles into grades 0 to 4 by reference to the method described in Bisselt et al. (Photochem. Photobiol., 1989, 50, p. 763-769) by a known method described in Tsukahara et al. (Br. J. Dermatol., 2004, 151, p. 984-994) or the like.
The score of the 90% EtOH control group was defined as 100, and wrinkle scores of the respective groups were evaluated based on the five-grade evaluation.

[2] = tested on: hairless mice irradiated with UV-B; assay: Replica image analysis (image analysis area ratio), Example 1; type: in vivo; conditions: 100 μL/day after UV-B, five times a week over 12 weeks
Description: as §1, §2, §3, §4
Replica collection and image analysis were performed as described below. A replica was collected from the skin of the back of each hairless mouse using a rubber-based silicon impression material (GC Corporation) by a known method described in Tsukahara K et al. (Br. J. Dermatol., 2004, 151, p. 984-994) or the like.
(§6) The collected replicas were cut out into pieces with a diameter of 1.8 cm, and the pieces were lined with the impression material to correct the pieces and subjected to an image analysis. The image analysis was performed using PIAS LA-555 (PIAS Corporation) by irradiating each piece with light from a direction of oblique 30 degrees to quantify shadows formed in an area of 10 mm×10 mm (image analysis area ratio (%)).
The image analysis area ratio of the 90% EtOH control group was defined as 100, and the image analysis area ratios (%) of the respective groups were evaluated based on the image analysis area ratios obtained by the quantification.

[3] = tested on: hairless mice irradiated with UV-B; assay: Measurement of skin elasticity (Ue, Cutometer), Example 1; type: in vivo; conditions: 100 μL/day after UV-B, five times a week over 12 weeks
Description: as §1, §2, §3, §4
(§7) Measurement of skin elasticity was performed by a known method described in Tsukahara K et al. (Br. J. Dermatol., 2004, 151, p. 984-994) using Cutometer SEM575 (C+K Corporation) to measure a displacement formed in 2 seconds in total with a 1-second suction of 100 mb, followed by a 1-second relaxation period. Measurement was performed five times for each mouse to determine Ue, which is a parameter of an instantaneous elasticity displacement. The Ue value of the 90% EtOH control group was defined as 100, and Ue values of the respective groups were determined.

[4] = tested on: hairless mice irradiated with UV-B; assay: Comprehensive evaluation of photoaging- and wrinkle-preventing effect, Example 1; type: in vivo
Description: as §1, §2, §3, §4, §5, §6, §7

[5] = tested on: wrinkle-formed hairless mice; assay: Evaluation of wrinkle-improving effect (visual evaluation of wrinkles), Example 2; type: in vivo; conditions: 1% in 90% EtOH, five times a week over 6 weeks, after 10 weeks of UV-B; versus 90% EtOH control group
Description: Wrinkle-formed hairless mice were prepared according to the description in the sections (1) and (2)(ii) of the above Example 1 by irradiating 6-week-old ICR/HR female mice, prepared by mating HR/HR with HaM/ICR, with UV-B over 10 weeks five times a week.
The hairless mice having wrinkles formed by irradiation with UV-B were visually evaluated with reference to the method described in Bisselt et al. (Photochem. Photobiol., 1989, 50, p. 763-769) by a known method described in Tsukahara et al. (Br. J. Dermatol., 2004, 151, p. 984-994) to divide the mice into two groups each having eight mice so that the average values of wrinkle scores (evaluated according to the description in the section 2)[…])) of the respective groups were almost the same.
A sample to be applied to the wrinkle-formed hairless mice was prepared as 1% compound (1)/90% EtOH solution.
The 90% EtOH (control) and the sample prepared as above were applied to the wrinkle-formed hairless mice of the respective groups over 6 weeks with five times a week at a dose of […]. The groups of the wrinkle-formed hairless mice applied with the samples include “90% EtOH control group” consisting of the mice applied with 90% EtOH, and “1%-compound 1 group” consisting of the mice applied with 1% Exemplified Compound (1)/90% EtOH solution. […]

[6] = David Malka et al., Journal of Hepathology, 1997; cited from earlier work

Row | Compound | wrinkle formation inhibiting effect (wrinkle score, visual evaluation) ([1]; 1% in 90% EtOH) | wrinkle formation inhibiting effect (replica image analysis) ([2]; 1% in 90% EtOH) | effect of inhibiting the decrease in skin elasticity (Ue) ([3]; 1% in 90% EtOH) | photoaging-preventing and wrinkle-preventing effects (comprehensive evaluation) ([4]; 1% in 90% EtOH) | also measured
1 | CCCCCCCCCCCCOCCN(C)C [compound 4, (2-dodecyloxy-ethyl)-dimethylamine] | – | – | – | – | wrinkle formation inhibiting effect (wrinkle score, visual evaluation) ([1]; 0.1% in 90% EtOH): decrease in this order; wrinkle formation inhibiting effect (replica image analysis) ([2]; 0.1% in 90% EtOH): decrease in this order; effect of inhibiting the decrease in skin elasticity (Ue) ([3]; 0.1% in 90% EtOH): decrease in this order; photoaging-preventing and wrinkle-preventing effects (comprehensive evaluation) ([4]; 0.1% in 90% EtOH): high
2 | CCCCCCCCCCCCNC(=O)CN(C)C [compound 2, 2-Dimethylamino-N-dodecyl-acetamide] | decrease in this order | decrease in this order | decrease in this order | high | –
3 | CCCCCCCCCCCC(=O)OCCN(C)C [compound 1, 2-dimethylamino-ethyl dodecanoate] | decrease in this order | decrease in this order | decrease in this order | high | wrinkle formation inhibiting effect (wrinkle score, visual evaluation) ([1]; 3% in 90% EtOH): decrease in this order; wrinkle formation inhibiting effect (replica image analysis) ([2]; 3% in 90% EtOH): decrease in this order; effect of inhibiting the decrease in skin elasticity (Ue) ([3]; 3% in 90% EtOH): decrease in this order; photoaging-preventing and wrinkle-preventing effects (comprehensive evaluation) ([4]; 3% in 90% EtOH): high; wrinkle score (wrinkle-improving effect, visual evaluation) [5]: lower than that of the 90% EtOH control group
4 | CCCCCCCCCCCC(=O)NCCN(C)C [compound 5, (2-dimethylaminoethyl)-amide dodecanoate] | maximum effect of inhibiting wrinkle formation | maximum effect of inhibiting wrinkle formation | maximum effect of inhibiting the decrease in skin elasticity | high | –
5 | CCCCCCCCCCCCOC(=O)CN(C)C [compound 3, Dodecyl dimethylamino acetate] | decrease in this order | decrease in this order | decrease in this order | high | –
6 | CCN(CCCc1ccccc1)CCCc1ccccc1 [alverine] | – | – | – | – | toxicity [6]: high toxicity
